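Grown in 96-well plates, cells were treated for 48 hours with each compound at five concentrations. Insufficient inhibition: endpoint recorded as highest concentration tested. GI50 is the concentration that inhibits growth by half. TGI denotes the concentration required for complete inhibition of growth.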
Tests used:
Assay in all cases: inhibition of tumour cell growth, NCI panel, 48 h
OVCAR-8 ovarian = test system: OVCAR-8 ovarian
OVCAR-4 ovarian = test system: OVCAR-4 ovarian
TK-10 renal = test system: TK-10 renal
MOLT-4 leukemia = test system: MOLT-4 leukemia
OVCAR-5 ovarian = test system: OVCAR-5 ovarian
SK-OV-3 ovarian = test system: SK-OV-3 ovarian
HL-60(TB) leukemia = test system: HL-60(TB) leukemia
U251 CNS = test system: U251 CNS
NCI/ADR-RES ovarian = test system: NCI/ADR-RES ovarian

| Compound | TGI (OVCAR-8 ovarian) | TGI (OVCAR-4 ovarian) | TGI (TK-10 renal) | TGI (MOLT-4 leukemia) | TGI (OVCAR-5 ovarian) | TGI (SK-OV-3 ovarian) | TGI (HL-60(TB) leukemia) | TGI (U251 CNS) | GI50 (NCI/ADR-RES ovarian) | TGI (NCI/ADR-RES ovarian) | GI50 (OVCAR-8 ovarian) | GI50 (OVCAR-4 ovarian) | GI50 (TK-10 renal) | GI50 (MOLT-4 leukemia) | GI50 (OVCAR-5 ovarian) | GI50 (SK-OV-3 ovarian) | GI50 (HL-60(TB) leukemia) | GI50 (U251 CNS) |
| --- | --- | --- | --- | --- | --- | --- | --- | --- | --- | --- | --- | --- | --- | --- | --- | --- | --- | --- |
| CC(C)(C)c1cc(CCC(=O)Nc2ccc(Cl)cc2)nc(NC#N)n1 | > 100 µM | > 100 µM | > 100 µM | > 100 µM | > 100 µM | > 100 µM | > 100 µM | > 100 µM |  |  |  |  |  |  |  |  |  |  |
| Cc1ccc(NC(=O)CC(=O)n2nc(C)c(N=Nc3ccccc3C(=O)O)c2C)cc1 | > 100 µM | > 100 µM | > 100 µM | > 100 µM | > 100 µM | > 100 µM | > 100 µM | > 100 µM |  |  |  |  |  |  |  |  |  |  |
| CCCC1N2CCCCC2[C@@H]2c3[nH]c4ccccc4c3CCN12 (stereo partly drawn) | > 100 µM | > 100 µM |  | > 100 µM | > 100 µM | > 100 µM | > 100 µM | > 100 µM |  |  |  |  |  |  |  |  |  |  |
| N#C/C(=C\c1ccc2ccccc2c1)c1ccccc1 | 96.7 µM | 69.1 µM | 75.7 µM | 94.5 µM | > 100 µM | 70.7 µM |  | 57.1 µM |  |  |  |  |  |  |  |  |  |  |
| O=C(N/C(=C\c1cccc([N+](=O)[O-])c1)c1nc2ccc([N+](=O)[O-])cc2[nH]1)c1ccccc1 | > 100 µM | 66.1 µM | > 100 µM | 51.4 µM | > 100 µM | > 100 µM |  | > 100 µM |  |  |  |  |  |  |  |  |  |  |
| NC12CC3CC(C1)CC(C(=O)O)(C3)C2 | > 100 µM | > 100 µM | > 100 µM | > 100 µM | > 100 µM | > 100 µM | > 100 µM | > 100 µM |  |  |  |  |  |  |  |  |  |  |
| Cc1ccc2c(c1)Sc1c(ccc3ccccc13)N2 | > 100 µM | > 100 µM | > 100 µM | > 100 µM | > 100 µM | > 100 µM | > 100 µM | > 100 µM | 41.9 µM | > 100 µM | 35 µM | > 100 µM | 12.8 µM | 6.82 µM | > 100 µM | > 100 µM | 34.2 µM | 9.31 µM |
| N#CC(C#N)=C1Nc2ccccc2S1 | > 100 µM | > 100 µM | 82.1 µM | > 100 µM |  | > 100 µM | > 100 µM | > 100 µM | 23.8 µM | 69.5 µM | 35.4 µM | 87 µM | 29.2 µM | 33.3 µM |  | 31.5 µM | 30.1 µM | 43.6 µM |
| COCCCNC(=O)C1C(=O)C(=O)N(CCCOC)C1=O (stereo not drawn) | > 100 µM | > 100 µM | > 100 µM | > 100 µM | > 100 µM | > 100 µM | > 100 µM | > 100 µM |  |  |  |  |  |  |  |  |  |  |
| CN(C)CCNC(=O)c1cccc2ccc(-c3ccncc3)nc12 | > 100 µM | 15 µM | 5.57 µM | 1.37 µM | 5.63 µM | 6.95 µM | 7.59 µM | 8.75 µM |  |  |  |  |  |  |  |  |  |  |
| CC(=O)OCC1OC(NC(=S)N/N=C2\CC(c3ccccc3)Oc3ccccc32)C(OC(C)=O)C(OC(C)=O)C1OC(C)=O (stereo not drawn) | > 100 µM | > 100 µM | > 100 µM | > 100 µM | > 100 µM | > 100 µM | > 100 µM | > 100 µM |  |  |  |  |  |  |  |  |  |  |

Reference: PubChem BioAssay (NCI)
